{"source": "patent US7138504B2", "about": "“Reagents and methods for mycophenolic acid immunoassay” (Microgenics Corporation, priority 2004, dated 2006)", "key": {"[1]": {"system": "antibody raised against MPAlc", "assay": "CEDIA MPA assay specificity (cross-reactivity) in MPA-free plasma", "format": "binding, goats", "method": "“Cross reactivity” is determined in a quantitative immunoassay by establishing a standard curve using known dilutions of MPA. The standard curve is then used to calculate the apparent concentration of the interfering substance present in various known amounts in samples assayed under substantially similar conditions. The percent (%) cross-reactivity is the measured concentration divided by the tested concentration multiplied by 100%. […] If MPA is present in the sample, it binds to the antibody, leaving the ED portion of the ED-containing conjugate free to restore enzyme activity upon association with enzyme acceptor (EA) fragments in the assay reaction mixture. The active enzyme is then capable of producing a quantifiable reaction product when exposed to appropriate substrate. If MPA is not present in the sample, the antibody binds to the ED-containing conjugate inhibiting association of the ED fragments with the EA fragments, thus inhibiting restoration of enzyme activity. The amount of reaction product and resultant absorbance change are proportional to the amount of MPA in the specimen. […] (active metabolite), were added to MPA-free plasma for measuring cross-reactivity. The estimated cross-reactivity of each compound was calculated using the formula: (measured concentration-control concentration)×100% concentration tested Additionally, commonly co-prescribed and over-the-counter (OTC) drugs were tested in MPA-free plasma for cross-reactivity in the […] assay."}, "[2]": {"system": "inosine-monophosphate dehydrogenase (IMPDH)", "settings": "cited from earlier work"}}, "data": [{"smiles": "COc1c(C)c2c(c(O[C@@H]3O[C@H](C(=O)O)[C@@H](O)[C@H](O)[C@H]3O)c1C/C=C(\\C)CCC(=O)O)C(=O)OC2", "note": "[7-O-Glucuronide MPA]", "values": [{"measurement": "% Cross-Reactivity", "setting": "[1]; concentration 1000 μg/ml", "value": 0.0, "unit": "%"}]}, {"smiles": "COc1c(C)c2c(c(O)c1C/C=C(\\C)CCC(=O)O[C@@H]1O[C@H](C(=O)O)[C@@H](O)[C@H](O)[C@H]1O)C(=O)OC2", "note": "[Acyl glucuronide MPA]", "values": [{"measurement": "% Cross-Reactivity", "setting": "[1]; concentration 10 μg/ml", "value": 192, "unit": "%"}, {"measurement": "inhibition of IMPDH", "setting": "[2]", "value": "activity similar to that of MPA"}]}, {"smiles": "COc1c(C)c2c(c(O)c1C/C=C(\\C)CCC(=O)O)C(=O)OC2", "note": "[MPA, Mycophenolic acid]", "values": [{"measurement": "inhibition of IMPDH", "setting": "[2]", "value": "potent and specific inhibitor"}]}, {"smiles": "COc1c(C)c2c(c(O)c1C/C=C(\\C)CCC(=O)OCCN1CCOCC1)C(=O)OC2", "note": "[Mycophenolate mofetil, 2-morpholinoethyl(E)-6-(1,3-dihydro-4-hydroxy-6-methoxy-7-methyl-3-oxo-5-isobenzofuranyl)-4-methyl-4-hexenoate]", "values": [{"measurement": "% Cross-Reactivity", "setting": "[1]; concentration 926 μg/ml", "value": 123, "unit": "%"}]}]}
